For the experiment, the target named is T1, CK1.2 (Trypanosoma brucei, UniProt Q57W25).
T1 sequence (Q57W25 1-332): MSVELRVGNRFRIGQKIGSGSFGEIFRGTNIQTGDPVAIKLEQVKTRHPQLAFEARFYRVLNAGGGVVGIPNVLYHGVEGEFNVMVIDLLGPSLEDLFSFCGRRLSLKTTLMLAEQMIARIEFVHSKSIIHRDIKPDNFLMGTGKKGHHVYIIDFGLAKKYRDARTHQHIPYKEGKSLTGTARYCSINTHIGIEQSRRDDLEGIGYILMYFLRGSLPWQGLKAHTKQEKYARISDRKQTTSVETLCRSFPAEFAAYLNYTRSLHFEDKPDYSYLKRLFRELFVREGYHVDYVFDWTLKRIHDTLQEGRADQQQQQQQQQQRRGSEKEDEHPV
Type of experiment: biochemical.

For orientation: IC50 means the concentration needed to halve the response being measured. A low value points to inhibition by little substance.

`Nc1nccc(-c2c(-c3ccc(F)cc3)ncn2C2CCCCC2)n1` [PF-670462] showed an IC50 of 29.1 nM.

Take `NC(=O)c1ccc(-c2nc(-c3ccc4c(c3)OCO4)c(-c3ccccn3)[nH]2)cc1` [SB-431542]: the IC50 is 49.2 nM.

The values above are taken from paper PMC12222847 (Scientific Reports, 2025).
